Source: patent publication US8216825B2, “Aquaculture biocide methods and compositions” (priority 2010, dated 2012)
Entries after “also recorded” stand apart in the source; their conditions may differ.

Columns and labels:
[1] = test system: Chlorella sp.; experiment: Biocide toxicity tests in test tubes, algal optical density at 680 nm (Example 5); type: cell-based; conditions: for mean optical density on day 12 compared with control group: 20 mg/L methoprene, 2% acetone respectively, P>0.05; for mean optical density on day 12 compared with control group / inhibition of algal growth: 2.0 mg/L resmethrin; for inhibition of algal growth: applied without rotifers, experimental concentrations 20 mg/L methoprene, 2% acetone; for mean optical density at day 12 compared with control: printed P>0.5
Experimental: 27 ml of Chlorella in Alga-Gro Freshwater Medium were added to 300 ml modified Bristol medium and allowed to grow without agitation for 30 hours. The 327 ml of algal solution were then expanded into a total of 700 ml modified Bristol medium and allowed to grow without agitation. After 42 hours, the 700 ml of algal solution were split up into 60 individual test tubes. Each test tube received 10 ml of algal solution, along with 1 ml of rotifer solution (or media) and 4 ml of reagent solution, for a total of 15 ml.
An initial Brachionus sp. population of about 30 individuals was cultured without agitation in one 60-ml jar for 3 days. Then, 1 ml of rotifer solution was pipetted into each of the 40 test tubes designated for rotifer toxicity assessment.
The 60 test tubes represented 12 groups, each with five replicates. The test group names and conditions are as follows (Table 4). The group “20M−R” contained algae, 20 mg/l of methoprene, and no rotifers. The group “20M+R” contained algae, 20 mg/l of methoprene, and rotifers. The group “5M+R” contained algae, 5 mg/l of methoprene, and rotifers. The group “5M+A+R” contained 5 mg/l of methoprene, 2% acetone (v/v), and rotifers. The group “2R−R” contained algae, 2.0 mg/I of resmethrin, and no rotifers. The group “2R+R” contained algae, 2.0 mg/l of resmethrin, and rotifers. The group “5R+R” contained algae, 0.5 mg/l of resmethrin, and rotifers. The group “5R+A+R” contained 0.5 mg/l of resmethrin, 2% acetone, rotifers. The group “A−R” contained algae, 2% acetone and no rotifers. The group “A+R” contained algae, 2% acetone and rotifers. The group “R” contained algae and rotifers without any extra reagents. The group “C” contained algae in media only.
Organisms were cultured and assessed for a test period of 12 days. During the test period, organisms were subjected to agitation at 60 rpm and a photoperiod of 12 hr light, 12 hr dark. The day that organisms were combined into the 60 test tubes was designated as day 0. A 1000-μl sample was removed from each tube for optical density analysis every other day, beginning on day 0. The optical densities of these samples were determined spectrometrically at 680 nm. On days 0, 6, and 12, a 250-μl sample was removed from each of the 1000-μl samples from rotifer-containing groups. Rotifers per 250-μl sample were counted with a dissecting microscope.
The optical densities of each of the 12 groups in the pesticide toxicity tests were averaged and plotted on a time plot (FIGS. 3 & 4). Standard deviation values and average algal growth rates were calculated for each group and day. T-tests were performed to determine the statistical significance of difference between relevant means. A linear regression model was used to compare the optical density averages of the “20M−R” group and the “C” control group. A linear regression of time against optical density in the control group of tubes was compared with a logarithmic regression model of time against optical density in the control flask. (FIG. 5).

[2] = test system: Brachionus sp. rotifers; experiment: Live rotifer count by microscopy in 30-μL samples (Example 1); type: in vivo; conditions: 13 days after inoculation
Experimental: One day prior to the general test period, the rotifer concentration was determined. The rotifer concentration of the bottle was estimated by counting rotifers in three trials of 30-μL samples with a Swift microscope at 1.25× magnification. Rotifer concentration was estimated again with the same procedure on the day of inoculation.
12 days after inoculation a 5-mL sample was extracted from each of the 15 jars containing rotifer solution. 24 hours after extraction, these samples were examined with microscopy. From each of the fifteen 5-mL samples, three 30-μL samples were pipetted onto glass slides and the rotifers were counted with a stereoscopic microscope at 2×-4× magnification.

[3] = test system: Brachionus sp. rotifers; experiment: 12-day mason jar test, algal optical density at 680 nm, algae with rotifers (Example 1); type: in vivo
Experimental: (§1) Algae were expanded into 500 ml of 20% artificial seawater in mason jars and subjected to five treatment conditions. Five replicates were conducted for each of the conditions. The test conditions were: control (algae only), rotifers without methoprene (A+R), methoprene without rotifers (A+M) methoprene with rotifers (A+R+M), and double concentration methoprene with rotifers (A+R+2M). In the mason jars containing solutions “with rotifers”, 9 mL of media were replaced with rotifer solution. In the A+M and A+R+M groups, the solution was modified to give a methoprene concentration of 30 mg/L. In the A+R+2M group, the solution was modified to give a methoprene concentration of 62 mg/L.
(§2) During the test period, algae was kept on a 12-hour light: 12-hour dark photoperiod at 26.8° C. The pH and specific gravity of the 20% artificial seawater solution were measured to be 8.92±0.02 and 1.013 respectively.
(§3) Optical density measurements were taken on days 5, 6, and 12 after inoculation. Each jar was first agitated either by gently rocking back and forth until minimal algal residue could be seen on the bottom. Occasionally, a sterile tube or pipette was employed to scrape some residue into the solution. Once minimal algal residue remained in the jar, a 5-mL sample of solution was pipetted out with a sterile pipette. The sample's optical density was read with a spectrometer at 680 nm. Control and A+R sample readings were blanked with a solution of 10 mL modified Bristol medium per 40 mL 20% artificial seawater. A+M and A+R+M sample readings were blanked with a solution of 10 mL modified Bristol medium per 38.5 mL 20% artificial seawater and 1.5 mL methoprene-seawater solution. A+R+2M sample readings were blanked with a solution of 10 mL modified Bristol medium per 36.9 mL 20% artificial seawater and 3.1 mL methoprene-seawater solution. Optical density readings were taken in absorbance units.

[4] = test system: Brachionus plicatilis; conditions: Marcial et al. (2005), lower concentration of the project is 30 mg/L; cited from earlier work
[5] = test system: humans or algae; conditions: background statement; cited from earlier work
[6] = test system: rotifers; conditions: at concentrations found in this study to be nontoxic to algae; literature findings; cited from earlier work
[7] = test system: rotifers; experiment: Rotifer-infested photobioreactor, methoprene with acetone (Example 3); type: in vivo; conditions: methoprene 30 mg/L or less with acetone between 1 and 27 ml/L; present-tense example
Experimental: Methoprene at a concentration of 30 mg/L or less is added to the algal solution in a rotifer-infested photobioreactor. Acetone at a concentration between 1 and 27 ml/L is also added as an adjuvant. At these concentrations, acetone may (while subjecting the algal crop to minimal harm) act as a surfactant, allowing methoprene to become more dissolved. […] Wait approximately 30 days before renewing the media so that methoprene can biodegrade sufficiently before disposal of water.

[8] = test system: Chlorella sp.; experiment: 12-day mason jar test, algal optical density at 680 nm, algae without rotifers (Example 1); type: cell-based; conditions: A+M: 30 mg/L methoprene, no rotifers
Experimental: as §1, §2, §3

[9] = test system: Chlorella sp.; experiment: Methoprene with acetone added to Chlorella, growth (Example 2); type: cell-based; conditions: methoprene 20 mg/L with acetone 2% v/v
Experimental: Methoprene at 20 mg/L with acetone at 2% v/v was added to Chlorella sp.

[10] = background statement; cited from earlier work
[11] = test system: rotofers; experiment: Alpha-pinene/propylene glycol in algal medium, rotifer control (Example 4); type: in vivo; conditions: approx. 1:1 (w/w) alpha-pinene and propylene glycol, equal to or less than 136 mg/L; present-tense example
Experimental: (§4) An approximate 1:1 (w/w) solution of alpha-pinene and propylene glycol is made. Alpha-pinene is the active agent, while propylene glycol is a surfactant. This mixture is added to the algal medium at a concentration equal to or less than 136 mg/L. Daphnia magna and rotofers are controlled in the aquaculture.

[12] = test system: Daphnia magna; experiment: Alpha-pinene/propylene glycol in algal medium, Daphnia control (Example 4); type: in vivo; conditions: approx. 1:1 (w/w) alpha-pinene and propylene glycol, equal to or less than 136 mg/L; present-tense example
Experimental: as §4

CC(C)=O [acetone]
mean optical density on day 12 compared with control group [1]: not significantly different
inhibition of algal growth [1]: Neither methoprene, resmethrin, nor acetone, when applied without rotifers, was found to inhibit algal growth; also recorded: not found to inhibit algal growth

COC(C)(C)CCC[C@H](C)C/C=C/C(C)=C/C(=O)OC(C)C (racemic) [methoprene]
live rotifers in 30-μL samples ([2]; A+R+2M: 62 mg/L methoprene): zero
live rotifers in 30-μL samples ([2]; A+R+M: 30 mg/L methoprene, A+R group 8.7 per 30 μL): zero
Mean optical density ± one standard deviation ([3]; A+R+2M: 62 mg/L methoprene with rotifers, 5 days): 0.6 ± 0.2
Mean optical density ± one standard deviation ([3]; A+R+2M: 62 mg/L methoprene with rotifers, 6 days): 0.7 ± 0.1
Mean optical density ± one standard deviation ([3]; A+R+2M: 62 mg/L methoprene with rotifers, 12 days): 0.7 ± 0.2
Mean optical density ± one standard deviation ([3]; A+R+M: 30 mg/L methoprene with rotifers, 5 days): 0.6 ± 0.2
Mean optical density ± one standard deviation ([3]; A+R+M: 30 mg/L methoprene with rotifers, 6 days): 0.7 ± 0.2
Mean optical density ± one standard deviation ([3]; A+R+M: 30 mg/L methoprene with rotifers, 12 days): 0.7 ± 0.2
average specific growth rate of algae ([3]; A+R+M: 30 mg/L methoprene with rotifers, between 5 and 12 days after inoculation): 0.0078 log(AU)/day
average optical density ([3]; double methoprene concentration with rotifers (A+R+2M, 62 mg/L), 12 days): 0.71 AU
average optical density ([3]; methoprene with rotifers (A+R+M, 30 mg/L), 12 days, rotifers only 0.47 AU, control 0.96 AU): 0.69 AU
24-hr LC50 [4]: lower methoprene concentration utilized in this project
toxicity to humans or algae [5]: practically non-toxic
mean optical density on day 12 compared with control group [1]: not significantly different
inhibition of algal growth [1]: Neither methoprene, resmethrin, nor acetone, when applied without rotifers, was found to inhibit algal growth
inhibition of algal growth ([1]; listed as Methoprene): not found to inhibit algal growth
mean optical density at day 12 compared with control ([1]; group 5M+R: 5 mg/L methoprene, rotifers): significantly lower
harm to rotifers [6]: significantly harmful to rotifers
effect on rotifers [7]: eliminates rotifers
Mean optical density ± one standard deviation ([8]; 5 days after inoculation): 0.84 ± 0.02
Mean optical density ± one standard deviation ([8]; 6 days): 0.89 ± 0.01
Mean optical density ± one standard deviation ([8]; 12 days): 0.93 ± 0.02
average specific growth rate of algae ([8]; between 5 and 12 days after inoculation): 0.0065 log(AU)/day
growth reduction of Chlorella sp. [9]: No growth reduction
degradation in sunlight [10]: rapidly degrades in sunlight

CC1=CCC2CC1C2(C)C (stereo not drawn) [alpha-pinene]
control of rotifers in the aquaculture [11]: controlled
control of Daphnia magna in the aquaculture [12]: controlled

CC(C)=CC1C(C(=O)OCc2coc(Cc3ccccc3)c2)C1(C)C (stereo not drawn) [resmethrin]
mean optical density on day 12 compared with control group [1]: not significantly different
inhibition of algal growth [1]: Neither methoprene, resmethrin, nor acetone, when applied without rotifers, was found to inhibit algal growth; also recorded: not found to inhibit algal growth
mean optical density at day 12 compared with control ([1]; group 2R−R as printed: 2.0 mg/L resmethrin, no rotifers): significantly lower
harm to rotifers [6]: significantly harmful to rotifers
